In ChEMBL document CHEMBL1141174, “Quantitative structure-activity relationship analysis of inhibitors of the nicotine metabolizing CYP2A6 enzyme” (J Med Chem, 2005) one finds selectivity ratio, IC50 and Km data, which are given here for 45 molecules.

Data set [1] has as its system CYP2A6 / CYP2A5. Put plainly: Ratio of IC50 for human CYP2A6 to that of mouse CYP2A5 was determined.
The target of data set [2] is T1, Cytochrome P450 2A6 (Homo sapiens, UniProt P11509).
T1 sequence (P11509 whole entry): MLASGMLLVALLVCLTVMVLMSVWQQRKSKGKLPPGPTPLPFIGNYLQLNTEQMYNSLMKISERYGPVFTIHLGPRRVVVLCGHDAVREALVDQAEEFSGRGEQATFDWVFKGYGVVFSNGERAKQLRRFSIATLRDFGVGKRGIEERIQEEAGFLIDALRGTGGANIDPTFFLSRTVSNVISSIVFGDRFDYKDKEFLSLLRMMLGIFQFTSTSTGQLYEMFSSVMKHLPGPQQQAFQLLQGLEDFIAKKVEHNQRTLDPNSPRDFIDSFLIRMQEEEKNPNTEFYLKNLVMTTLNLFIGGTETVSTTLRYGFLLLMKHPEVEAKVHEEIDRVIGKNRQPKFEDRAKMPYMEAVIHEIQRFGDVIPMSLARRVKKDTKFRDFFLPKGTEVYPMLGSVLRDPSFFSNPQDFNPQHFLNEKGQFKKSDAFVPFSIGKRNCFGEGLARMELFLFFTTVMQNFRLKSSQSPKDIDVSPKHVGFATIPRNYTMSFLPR
Put plainly: Inhibitory concentration against human cytochrome P450 2A6.

Data set [3] deals with T2, Cytochrome P450 2A5 (Mus musculus, UniProt P20852).
T2 sequence (P20852 whole entry): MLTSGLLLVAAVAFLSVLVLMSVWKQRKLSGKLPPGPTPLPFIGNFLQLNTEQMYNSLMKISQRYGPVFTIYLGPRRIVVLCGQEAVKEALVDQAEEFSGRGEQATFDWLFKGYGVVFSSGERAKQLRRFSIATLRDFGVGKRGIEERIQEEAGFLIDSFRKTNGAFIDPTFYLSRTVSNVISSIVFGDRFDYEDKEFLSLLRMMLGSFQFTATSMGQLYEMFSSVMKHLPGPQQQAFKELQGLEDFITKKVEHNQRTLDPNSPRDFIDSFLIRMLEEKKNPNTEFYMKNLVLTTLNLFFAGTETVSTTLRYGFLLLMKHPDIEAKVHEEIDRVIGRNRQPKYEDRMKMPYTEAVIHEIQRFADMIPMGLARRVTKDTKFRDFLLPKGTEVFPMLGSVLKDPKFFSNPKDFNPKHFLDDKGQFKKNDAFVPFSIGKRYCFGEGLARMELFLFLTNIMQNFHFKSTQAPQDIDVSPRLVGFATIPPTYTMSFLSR
Put plainly: Inhibitory concentration against mouse cytochrome P450 2A5.

Data set [4] concerns the target T3, CYP2A6 (Homo sapiens, UniProt P11509).
T3 sequence (P11509 whole entry): T1 sequence (P11509 whole entry)
Put plainly: Michaelis-Menten constant of compound against human cytochrome P450 2A6 enzyme. The class given is ADME.

Substrate in data set [5]: O=c1ccc2ccccc2o1
As to the kind of experiment: Michaelis-Menten constant of compound against mouse cytochrome P450 2A5 enzyme. The format is ADME.

One may read the IC50 as the concentration that inhibits the measured activity by half. A lower IC50 goes with greater potency. For `Oc1ccc2ccccc2c1` [BETANAPHTHOL], the selectivity ratio in data set [1] was determined as 1.8. Also, the IC50 was determined as 140 µM in data set [2] and 78 µM in data set [3].
The matching figures for `Cc1nccc2ccccc12`: 0.36, 60 µM and 170 µM.
Consider `O=Cc1ccccc1` [BENZALDEHYDE], for which the IC50 in data set [2] is 3.92 µM; in data set [3], 3.28 µM.
Turning to `COc1cc2c(cc1OC)CC(=O)CC2`, the selectivity ratio in data set [1] turned out to be 9.2. Besides, the half-maximal inhibitory concentration (IC50) in data set [2] came out at 2000 µM; in data set [3], 210 µM.
For `Clc1ccc(Cl)cc1` [1,4-DICHLOROBENZENE], the selectivity ratio in data set [1] stood at 30.4. Besides, the IC50 in data set [2] came to 17 µM; in data set [3] it was 1 µM.
Turning to `Cc1cccc2c(C)cccc12`, the selectivity ratio in data set [1] stood at 0.91. In addition, the results for the IC50 in data set [2] and in data set [3] were 31 µM and 34 µM, respectively.
As for `c1ccc2ccccc2c1` [NAPHTHALENE], in data set [1], the selectivity ratio was found to be 0.34. The IC50 in data set [2] is 25 µM; in data set [3], 74 µM.
The matching figures for `Cc1ccc2ccccc2n1` [QUINALDINE]: 2.4, 190 µM and 80 µM.
Turning to `Clc1ccccc1-c1ccccc1`, in data set [1], the selectivity ratio stood at 2.8. The IC50 stood at 36 µM in data set [2] and 13 µM in data set [3].
In the same order, the values of `Cc1ccc2cc(C)ccc2c1` are 5.9, 10 µM and 1.7 µM.
In the same order, the values of `CN1CCC[C@@H]1c1cccnc1` [R-NICOTINE] are 3.8, 580 µM and 160 µM.
For the molecule `Fc1ccc2ccccc2c1`, the selectivity ratio in data set [1] was determined as 0.09. Also, the values for the IC50 in data set [2] and in data set [3] were 0.67 µM and 7.3 µM, respectively.
In data set [3], `Cc1ccc(C=O)cc1` registered an IC50 of 20.9 µM.
Consider `Brc1ccc2ccccc2c1`, for which the selectivity ratio in data set [1] amounted to 0.22. Besides, the IC50 in data set [2] worked out at 0.55 µM; in data set [3] it was 2.5 µM.
In the same order, the values of `Cc1cc(C)c2ccccc2n1` are 7.7, 830 µM and 110 µM.
In the same order, the values of `Clc1ccc2ccccc2c1` are 0.45, 5.4 µM and 12 µM.
Consider `CC(N)Cc1ccccc1` (stereo not drawn) [AMPHETAMINE], for which the results for the IC50 in data set [2] and in data set [3] were 3.5 µM and 2.85 µM, respectively.
As for `Cc1ccc2ccc(C)nc2c1`, in data set [1], the selectivity ratio was determined as 2.2. The IC50 amounted to 400 µM in data set [2] and 180 µM in data set [3].
The matching figures for `Cc1ccc2cccc(C)c2c1`: 1.2, 31 µM and 14 µM.
In the same order, the values of `Oc1cccc2ccccc12` [1-NAPHTHOL] are 0.96, 130 µM and 140 µM.
On to `Clc1cc2cc(Cl)c(Cl)c(Cl)c2cc1Cl`, for which the IC50 in data set [2] was greater than 600 µM; in data set [3], 300 µM.
Take `c1ccc2c(c1)ccc1ccccc12` [PHENANTHRENE]: the selectivity ratio in data set [1] came out at 4. For the same molecule, the IC50 in data set [2] was 97 µM; in data set [3], 26 µM.
In the same order, the values of `Clc1cccc2ccccc12` are 1.3, 18 µM and 14 µM.
In the same order, the values of `O=C1CCc2ccccc2C1` are 2.2, 21 µM and 9.7 µM.
As for `CN1C(=O)CCC1c1cccnc1` (single isomer, unassigned) [COTININE], the selectivity ratio in data set [1] came out at 42.8. In addition, half-maximal inhibition in data set [3] (IC50) was put at 1500 µM.
Turning to `Cc1ccc2c(C)cccc2c1`, in data set [1], the selectivity ratio stood at 4. Further, the IC50 in data set [2] was found to be 130 µM; in data set [3], 32 µM.
In the same order, the values of `Cc1cccc2ccccc12` are 1.4, 34 µM and 24 µM.
Regarding `Clc1ccc2ccc(Cl)cc2c1`, the IC50 in data set [2] is greater than 100 µM; in data set [3], 4.4 µM.
Regarding `CCc1ccc2ccccc2c1`, the selectivity ratio in data set [1] turned out to be 2.4. In addition, the IC50 in data set [2] amounted to 12 µM; in data set [3], 4.8 µM.
In the same order, the values of `Clc1ccc(-c2ccccc2)cc1` are 8.2, 150 µM and 18 µM.
Turning to `NCCc1ccccc1` [PHENETHYLAMINE], the IC50 in data set [2] amounted to 38.9 µM; in data set [3], 1000 µM.
In the case of `Cc1ccc(CCN)cc1`, the figures for the IC50 in data set [2] and in data set [3] were 5.3 µM and 4 µM, respectively.
Take `CC(=O)c1ccc2ccc(C)cc2c1`: the selectivity ratio in data set [1] worked out at 1.6. The IC50 in data set [2] came out at 6.7 µM; in data set [3] it was 4.1 µM.
The matching figures for `Cc1cc2ccccc2cn1`: 5.1, 25 µM and 4.8 µM.
For `Clc1cc2ccccc2cc1Cl`, the figures for the IC50 in data set [2] and in data set [3] were greater than 60 µM and 60 µM, respectively.
With `Cc1cnc2ccccc2c1`, the selectivity ratio in data set [1] was determined as 1.9. The IC50 in data set [2] was found to be 200 µM; in data set [3], 100 µM.
In the same order, the values of `Brc1ccc(Br)cc1` are 48.5, 59 µM and 2.2 µM.
As for `Clc1ccc2ccccc2c1Cl`, the IC50 in data set [2] is 15 µM; in data set [3], 5.5 µM.
By Km is commonly meant the substrate concentration at which the rate is half of its maximum. `O=c1ccc2ccccc2o1` [COUMARIN]: in data set [4], the Km is 0.74 µM.
Regarding `COc1ccc(C=O)cc1` [ANISALDEHYDE], the IC50 in data set [2] was 7.1 µM; in data set [3], 5.9 µM.
`O=C1CCCc2ccccc21`: the selectivity ratio in data set [1] is 3.6. The figures for the IC50 in data set [2] and in data set [3] were 52 µM and 14 µM, respectively.
As to `Cc1ccc2ccc(C)cc2c1`, the values for the IC50 in data set [2] and in data set [3] were 1.7 µM and 1.4 µM, respectively.
In the case of `Clc1cccc2c(Cl)cccc12`, the selectivity ratio in data set [1] stood at 1.04. Besides, the IC50 in data set [2] came to 2.5 µM; in data set [3], 2.4 µM.
With `Cc1ccc2ccccc2c1`, the selectivity ratio in data set [1] amounted to 0.34. For the same molecule, the figures for the IC50 in data set [2] and in data set [3] were 2.4 µM and 7 µM, respectively.

B1: Cytochrome P450 2A5 (Mus musculus) (protein)
chain: T2 sequence (P20852 whole entry)
Consider B1, for which the Km in data set [5] came out at 0.64 µM.
